The source of these data is publication PMC10988555, “Exploiting Co(III)-Cyclopentadienyl Complexes To Develop Anticancer Agents” (Inorganic Chemistry, 2024).

Structures are written as SMILES.

In data set [1] the test system is A2780 cells. In words: Cellular viability after 12 h at 37 °C versus 4 °C. It counts as cell-based, human. Particulars: A2780, 12 h, 20× IC50.
For data set [2], the system named is plasmidic DNA (pUC18). Description: Interaction with pDNA and cleavage mechanism (agarose gel electrophoresis). It counts as biochemical. Particulars: 25 μM complex with NaN3, catalase or D2O, 24 h. On the procedure: E. coli transformed with pUC18 was inoculated onto a plate of LB-agar medium (Luria–Bertani) (Applichem, Darmstadt, Germany) supplemented with ampicillin (100 μg/mL) (Bioline, London, UK) and incubated for 24 h at 37 °C. Then, the E. coli cells were inoculated in liquid LB medium, supplemented with ampicillin (100 μg/mL) for 24 h at 37 °C. After incubation, the plasmid DNA (pDNA) was extracted by using the Kit NZYSpeedy Miniprep, following the instructions provided by the manufacturer.
The extracted pDNA (100 ng) was incubated with 5, 25, 50, and 100 μM concentrations of complexes 2–4, with DMSO 0.1% or only pUC18. The solutions were prepared in 5 mM Tris–HCl, 50 mM NaCl, pH 7.02, buffer, and incubated for 24 h at 37 °C. A control of pDNA cleaved with Hind III endonuclease was also used. Electrophoresis was performed in 0.8% (w/v) agarose gel (NZYtech) in TAE buffer at 70 V constant voltage for 1 h. Electrophoresis gel image was acquired in the Gel Doc EZ Imager (Bio-Rad).
The pDNA (100 ng) was incubated with 25 μM of complexes 2–4, in the absence or presence of 50 μM of NaN3, 4 units of catalase from the bovine liver (2000–5000 U/mg, Sigma-Aldrich, Spain), and 25 mM of D2O. The solutions were prepared in 5 mM Tris–HCl, 50 mM NaCl, pH 7.02, buffer, and incubated for 24 h at 37 °C. A control of pDNA cleaved with Hind III endonuclease was also used. […]

For data set [3], the system named is Caspase 8 in A2780 cell line. Description: Caspase 8 activity assay. Particulars: A2780, IC50, 48 h, normalized to DMSO. It counts as cell-based, human. The procedure:
The A2780 cell line was seeded in 25 cm^2 T-flasks at a density of 2 × 10^6 cells/T-flasks. […] After that, cells were detached using cold PBS 1× and a cell scraper and centrifuged at 500 × g for 5 min. Then, we followed the instructions provided by the manufacturer of the Caspase-8 assay kit (Abcam). The data was obtained by measuring the absorbance of each sample at 400 nm and each value was normalized to the value of the DMSO sample.

Data set [4] relates to BAX and BCL-2 proteins in A2780 cell line. In words: BAX and BCL-2 protein expression by Western blot. Particulars: A2780, IC50, 48 h, normalized against DMSO control (=1). It is filed as cell-based, human. The procedure: The quantification of BAX and BCL-2 protein expression in the A2780 cell line incubated with different cobalt complexes in the A2780 cell line was determined by WB. For this, the A2780 cell line was cultivated in 25 cm^2 T-flasks at a density of 2 × 10^6 cells/mL and incubated for 24 h in the conditions described above. […] After 48 h incubation, the cells were washed and collected using cold PBS 1× and a cell scraper. The samples were centrifuged for 5 min at 700 × g and resuspended in fresh lysis buffer (150 mM NaCl, 5 mM ethylenediaminetetraacetic acid (EDTA), 50 mM Tris–HCl at pH 8.0, 2% (v/v) NP-40, 1× phosphatase inhibitors (PhosStop, Roche), 1× Protease inhibitors (complete ULTRA tablets, Mini, easypack, Roche), 1 mM phenylmethylsulfonylfuoride (PMSF) and 0.1% 1,4-dithiothreitol (v/v), DTT) and then storage at −80 °C for 2 h or until required. Cells were submitted to 5 ultrasound cycles and centrifuged at 1000 × g for 5 min. The total protein extract (supernatant) was quantified with Pierce Protein Assay Reagent (ThermoFisher Scientific) at 660 nm. […]
The membranes were incubated with WesternBright ECL subtract (Advansta) for 5 min in the dark and the film was exposed to the membranes in a dark room. […] Protein quantification was made by densitometry with ImageJ software.
On the technique in general: In western blotting, separated proteins are transferred to a membrane and probed.

`Cc1ccnc(-c2cc(C)ccn2)c1.O=S(=O)([O-])C(F)(F)F.O=S(=O)([O-])C(F)(F)F.[Co+3].c1cc[cH-]c1.c1ccc(P(c2ccccc2)c2ccccc2)cc1` [Complex 2, [Co(η^5-C5H5)(PPh3)(Me2bipy)][(CF3SO3)2]]: the “cytotoxic activity at 4 °C compared to 37 °C” value in data set [1] was “significantly lose some of their cytotoxic activity at 4 °C”. The pDNA cleavage mechanism result in data set [2] is on record as “cleave pDNA through singlet oxygen”. For the same molecule, the “caspase 8 activity relative to control” value in data set [3] is 2 ×.
Consider `O=S(=O)([O-])C(F)(F)F.O=S(=O)([O-])C(F)(F)F.[Co+3].c1cc[cH-]c1.c1ccc(P(c2ccccc2)c2ccccc2)cc1.c1cnc2c(c1)ccc1cccnc12` [Complex 3, [Co(η^5-C5H5)(PPh3)(phen)][(CF3SO3)2]], for which the “cytotoxic activity at 4 °C compared to 37 °C” value in data set [1] was “significantly lose some of their cytotoxic activity at 4 °C”. The pDNA cleavage mechanism result in data set [2] is “cleave pDNA through singlet oxygen”. Besides, in data set [4], the BAX/BCL-2 ratio is recorded as 2.8.
For the molecule `Nc1cc2cccnc2c2ncccc12.O=S(=O)([O-])C(F)(F)F.O=S(=O)([O-])C(F)(F)F.[Co+3].c1cc[cH-]c1.c1ccc(P(c2ccccc2)c2ccccc2)cc1` [Complex 4, [CoCp(PPh3)(NH2phen)][(CF3SO3)2]], in data set [4], the BAX/BCL-2 ratio was less than 1. Also, the “caspase 8 activity relative to control” value in data set [3] was 1.6 ×.
